Reference: US11214803B2, “Modulators of YAP1 expression” (Ionis Pharmaceuticals, Inc., priority 2019, dated 2022)
Strand notation (5' to 3'): a small letter for the sugar, then the base; units joined by * are phosphorothioate-linked, units joined directly phosphodiester-linked; [ ] holds rarer units or linkages, { } end groups; capitals alone tell only the bases. k = constrained ethyl (cEt); [5mC] = 5-methylcytosine; d = 2'-deoxy (DNA)

system: Yap1 mRNA; assay: Antisense inhibition of human Yap1 in A-431 cells by cEt gapmers, single dose (Example 4, RTS4814); assay type: cell-based; details: Table 14; A-431 cells, 5,000 cells per well, free uptake, 2,000 nM, approximately 48 hours; RTS4814; normalized to RIBOGREEN; Yap1 mRNA relative to untreated control; * = targets amplicon region of primer probe set
Outline: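 Values are % UTC: Yap1 mRNA by quantitative RT-PCR, normalized to RIBOGREEN total RNA. Cells were exposed ~48 h to 2,000 nM oligonucleotide without transfection. Oligonucleotides were 16-nucleoside gapmers with three cEt nucleosides per wing, ten-deoxy gap, P=S linkages throughout.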

Substance | YAP1 (% UTC)
1074144 (antisense kA*kG*k[5mC]*dG*dG*d[5mC]*dG*dA*d[5mC]*dG*dG*d[5mC]*dT*kG*k[5mC]*kG) [Compound 1074144] | 92
1075040 (antisense kT*kT*kA*dT*dA*dA*dA*dG*dA*dG*dG*d[5mC]*dT*k[5mC]*kA*kG) [Compound 1075040] | 10
1074496 (kA*kA*kT*dA*dA*d[5mC]*d[5mC]*dA*dT*d[5mC]*d[5mC]*d[5mC]*dA*kA*kG*k[5mC]; antisense) [Compound 1074496] | 69
1074400 (antisense kG*kA*kT*dT*dT*dA*dG*dA*dA*dT*dT*d[5mC]*dA*kG*kT*k[5mC]) [Compound 1074400] | 42
1075776 (kA*kT*kG*dT*dG*dA*dT*dA*dT*dG*dG*dA*dT*kT*k[5mC]*kT; antisense) [Compound 1075776] | 10
1074336 (antisense k[5mC]*k[5mC]*kA*dG*dT*dG*dT*dT*dG*dG*dT*dA*dA*k[5mC]*kT*kG) [Compound 1074336] | 97
1076352 (kG*kA*kT*dA*dA*d[5mC]*d[5mC]*d[5mC]*dT*dG*dA*dA*dA*k[5mC]*kA*kA; antisense) [Compound 1076352] | 37
1075008 (antisense kT*kA*kA*dT*d[5mC]*dG*dA*dA*d[5mC]*dA*dT*dT*dG*kT*kG*kT) [Compound 1075008] | 61
1074720 (antisense kG*kA*kA*dG*dA*dT*d[5mC]*dT*d[5mC]*d[5mC]*dA*dT*dA*kT*kT*k[5mC]) [Compound 1074720] | 58
1074304 (antisense k[5mC]*kT*kG*d[5mC]*d[5mC]*dG*dA*dA*dG*d[5mC]*dA*dG*dT*kT*k[5mC]*kT) [Compound 1074304] | 109

same assay, conditions: Table 15; A-431 cells, 5,000 cells per well, free uptake, 2,000 nM, approximately 48 hours; RTS4814; normalized to RIBOGREEN; Yap1 mRNA relative to untreated control; * = targets amplicon region of primer probe set

Substance | YAP1 (% UTC)
1074465 (kA*kA*kT*d[5mC]*dT*dA*dT*dA*dT*dT*dA*dG*dA*kG*kT*kA; antisense) [Compound 1074465] | 44
1075937 (kA*k[5mC]*kT*dT*dA*dT*dA*dT*dT*d[5mC]*dT*d[5mC]*dT*k[5mC]*k[5mC]*kG; antisense) [Compound 1075937] | 36
1074689 (antisense k[5mC]*kT*k[5mC]*d[5mC]*d[5mC]*d[5mC]*d[5mC]*dT*dA*dA*dG*d[5mC]*dT*kA*kA*kA) [Compound 1074689] | 70
1075713 (kA*kA*kT*d[5mC]*dA*dA*d[5mC]*d[5mC]*dT*dT*dG*dT*dT*kA*kG*kA; antisense) [Compound 1075713] | 58

same assay, conditions: Table 16; A-431 cells, 5,000 cells per well, free uptake, 2,000 nM, approximately 48 hours; RTS4814; normalized to RIBOGREEN; Yap1 mRNA relative to untreated control cells

Substance | YAP1 (% UTC)
1075746 (kG*kA*kT*dT*dA*dA*d[5mC]*d[5mC]*d[5mC]*dA*dG*dT*dA*kG*kA*kG; antisense) [Compound 1075746] | 28
1076322 (kA*kT*kT*dT*dA*d[5mC]*dA*dA*dG*dT*dG*dA*dG*k[5mC]*kA*k[5mC]; antisense) [Compound 1076322] | 21
1076514 (antisense k[5mC]*k[5mC]*kT*dT*dA*dG*dG*dA*dG*dA*dT*dG*d[5mC]*kA*k[5mC]*k[5mC]) [Compound 1076514] | 18
1076386 (kA*kG*kT*dT*dA*dT*dA*dA*d[5mC]*dA*dG*dT*dG*kT*kA*kA; antisense) [Compound 1076386] | 7
1075458 (antisense k[5mC]*k[5mC]*kA*d[5mC]*dA*dA*dT*dA*dT*dA*d[5mC]*dT*d[5mC]*k[5mC]*kA*kA) [Compound 1075458] | 7
1075554 (kT*kT*kG*d[5mC]*dA*dA*dT*dA*dG*dT*d[5mC]*dA*d[5mC]*k[5mC]*k[5mC]*kA; antisense) [Compound 1075554] | 56
1074594 (antisense kT*kA*kG*dG*dA*dG*d[5mC]*dA*dA*dG*dT*d[5mC]*dT*kT*kG*kT) [Compound 1074594] | 6

same assay, conditions: Table 17; A-431 cells, 5,000 cells per well, free uptake, 2,000 nM, approximately 48 hours; RTS4814; normalized to RIBOGREEN; Yap1 mRNA relative to untreated control cells

Substance | YAP1 (% UTC)
1074115 (antisense kA*kG*kA*dA*d[5mC]*dT*dT*dT*dT*dT*d[5mC]*d[5mC]*d[5mC]*kT*k[5mC]*k[5mC]) [Compound 1074115] | 33
1076291 (kG*kA*kT*dT*dA*dA*dT*dG*dG*dT*dG*dG*d[5mC]*kA*kT*kT; antisense) [Compound 1076291] | 4
1076387 (kT*kG*kA*d[5mC]*dA*dA*d[5mC]*dA*d[5mC]*dA*dG*dT*dT*kA*kT*kA; antisense) [Compound 1076387] | 13
1074307 (antisense kG*kT*kG*dG*d[5mC]*d[5mC]*dT*d[5mC]*dA*d[5mC]*d[5mC]*dT*dG*k[5mC]*k[5mC]*kG) [Compound 1074307] | 105
1075875 (kA*k[5mC]*kT*dT*dA*dA*d[5mC]*dA*dA*d[5mC]*d[5mC]*d[5mC]*dT*kA*k[5mC]*kG; antisense) [Compound 1075875] | 72
1075299 (kG*kA*kT*dA*dA*d[5mC]*d[5mC]*dA*dA*dT*dG*d[5mC]*dA*k[5mC]*k[5mC]*kA; antisense) [Compound 1075299] | 21
1074595 (antisense kT*kA*kG*dA*dA*dG*dT*dA*dG*dG*dA*dG*d[5mC]*kA*kA*kG) [Compound 1074595] | 4
1075939 (k[5mC]*kT*kT*dG*dA*dA*dT*dA*dT*dA*dT*dG*dG*kG*kT*kT; antisense) [Compound 1075939] | 6
1074371 (antisense kG*kT*kT*dG*dA*dT*dA*dG*dT*dA*dT*d[5mC]*dA*k[5mC]*k[5mC]*kT) [Compound 1074371] | 31
1075683 (k[5mC]*kT*kG*dA*dA*dA*dA*dA*dG*dT*dT*dA*dT*kG*k[5mC]*k[5mC]; antisense) [Compound 1075683] | 56
1075491 (antisense kG*kA*k[5mC]*dG*dG*dA*dA*dG*dT*dT*dG*d[5mC]*dA*kA*kG*kG) [Compound 1075491] | 93
1075619 (k[5mC]*kT*kT*dA*dG*dA*dT*dA*d[5mC]*dT*dA*d[5mC]*dT*kT*kT*kG; antisense) [Compound 1075619] | 54
1075235 (antisense kA*kG*kT*dA*dA*dA*dT*dA*d[5mC]*dT*d[5mC]*dT*dA*kG*kT*kT) [Compound 1075235] | 38
1075075 (antisense kA*kA*kT*dT*dT*dT*dA*dT*dA*dA*dG*d[5mC]*d[5mC]*k[5mC]*kA*k[5mC]) [Compound 1075075] | 9

same assay, conditions: Yap1 mRNA remaining as percent of untreated control; 3-10-3 cEt gapmers; A-431 cells; Table 36

Substance | YAP1 (% UTC)
1074358 (antisense kT*k[5mC]*kG*dA*dG*dG*dG*dA*d[5mC]*dA*d[5mC]*dT*dG*kT*kA*kG) [compound 1074358] | 17
1075030 (antisense kT*kT*kA*dA*dT*dA*dT*dT*d[5mC]*dG*dA*d[5mC]*dA*k[5mC]*kT*kG) [compound 1075030] | 37
1074934 (antisense k[5mC]*kA*kG*dG*dA*dG*dA*d[5mC]*dT*dA*dT*dA*d[5mC]*kA*kA*k[5mC]) [compound 1074934] | 74
1074262 (antisense kG*k[5mC]*k[5mC]*dG*dA*dG*dT*dT*d[5mC]*dA*dT*d[5mC]*dA*kT*kA*kT) [compound 1074262] | 48
1074710 (antisense k[5mC]*kT*k[5mC]*dT*dA*dG*dA*dA*d[5mC]*dA*dG*d[5mC]*dT*kG*k[5mC]*k[5mC]) [compound 1074710] | 42

same assay, conditions: Yap1 mRNA remaining as percent of untreated control; 3-10-3 cEt gapmers; A-431 cells; Table 37

Substance | YAP1 (% UTC)
1075191 (kA*k[5mC]*kG*dG*dG*dA*dA*dA*dG*dA*dA*dA*dG*kG*k[5mC]*k[5mC]; antisense) [compound 1075191] | 83
1075255 (kA*kA*kA*dT*dA*dT*d[5mC]*d[5mC]*dG*dT*dG*dT*d[5mC]*k[5mC]*kT*k[5mC]; antisense) [compound 1075255] | 16
1074967 (antisense kG*kA*k[5mC]*dA*dA*dA*dT*dT*dG*dA*dA*dG*dT*kG*kT*kT) [compound 1074967] | 116
1074551 (DNA kA*kA*kT*dA*dT*d[5mC]*dT*dA*d[5mC]*d[5mC]*dG*dT*dA*kT*kG*k[5mC]; antisense) [compound 1074551] | 58
1075703 (kG*kG*kA*dG*dA*dA*dA*dG*d[5mC]*d[5mC]*dA*dT*d[5mC]*kA*kA*kG; antisense) [compound 1075703] | 10
1074711 (antisense kA*k[5mC]*kT*d[5mC]*dT*dA*dG*dA*dA*d[5mC]*dA*dG*d[5mC]*kT*kG*k[5mC]) [compound 1074711] | 28
1076343 (antisense kA*kG*kA*d[5mC]*dT*dA*dA*dA*dT*d[5mC]*dT*dT*d[5mC]*k[5mC]*k[5mC]*kT) [compound 1076343] | 8
1074647 (antisense k[5mC]*kA*kA*dA*dT*dT*dG*dA*dA*dG*dG*dG*d[5mC]*k[5mC]*kA*kA) [compound 1074647] | 27
1075575 (antisense kT*kT*kA*d[5mC]*dA*dA*d[5mC]*dA*d[5mC]*dA*dA*dG*dT*k[5mC]*kT*kA) [compound 1075575] | 55
1074999 (antisense kA*kA*k[5mC]*d[5mC]*dA*dA*d[5mC]*dA*d[5mC]*dG*d[5mC]*dG*dA*k[5mC]*k[5mC]*kT) [compound 1074999] | 77
